For orientation: Ki means a measure of affinity in units of concentration, obtained from inhibition or displacement.

The structures appear in SMILES notation.

In this assay the target is T1, human cathepsin K (Homo sapiens, UniProt P43235).
T1 construct: The proform of cathepsin K was converted to mature cathepsin K by brief exposure to pH 4; made in house; host or cells: baculovirus; Trichoplusia ni High Five cells (virus raised in Sf-9)
T1 sequence (P43235 115-329): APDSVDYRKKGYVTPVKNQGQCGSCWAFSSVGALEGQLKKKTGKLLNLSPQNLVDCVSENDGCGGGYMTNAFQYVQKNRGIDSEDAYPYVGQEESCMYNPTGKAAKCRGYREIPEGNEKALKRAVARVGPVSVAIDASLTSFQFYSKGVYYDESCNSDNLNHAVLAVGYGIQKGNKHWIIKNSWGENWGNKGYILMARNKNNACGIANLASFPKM
The experiment in a line: Cathepsin K inhibition assay, fluorogenic substrate Cbz-Phe-Arg-AMC, progress curve method. Particulars: Table 1; human recombinant enzyme, pH 5.5, 30° C., 10 μM substrate; read-out: hCat K Ki. Type of assay: biochemical. As to the method:
All assays for cathepsin K were carried out with human and rat recombinant enzyme. Assays for cathepsins S Et V were also carried out with human recombinant enzyme. Assays for human cathepsins B. H. and L were carried out with enzyme, purchased from Athens Research and Technology, Inc., prepared from human liver tissue. […] A stock substrate solution of Cbz-Phe-Arg-AMC was prepared at a concentration of 50 mM in dimethyl sulfoxide. This substrate was diluted into the assay for a final substrate concentration of 10 μM in the rat cathepsin K, human cathepsin K, and human cathepsin B assays; a final substrate concentration of 5 μM in the human cathepsin L assay; and a final substrate concentration of 2 μM in the human cathepsin V assay.
All assays contained 10% dimethyl sulfoxide. […] All assays were conducted at 30° C. Product fluorescence (excitation at 360 nm; emission at 440 nm, (except cathepsin H which used excitation at 340 nm; emission at 420 nm)) was monitored with a PerSeptive Biosystems Cytofluor II fluorescence plate reader. Product progress curves were generated over 2.3 h monitoring the formation of 7-amino-4-methylcoumarin product (or β-naphthalamide for cathepsin H).
Two liters of Spodoptera frugiperda (Sf-9) cells (ATCC) were grown in Grace's Supplemented medium (Life Technologies) supplemented with 2 g/L glucose, 10% a fetal bovine serum (HyClone) and 0.10% pluronic F-68 (Life Technologies). […] The cells continued to grow for 72 h post-infection, before the virus was harvested by centrifugation at 1400× g for 30 min.
One and one-half liters of Trichoplusia ni (T. ni) High Five (TM) cells [JRH Biosciences, Woodland, Calif. […] Media were separated from cells at a rate of 1 L/min using the Centritech 100 (TM) continuous-flow centrifuge (DuPont) operating at 200× g.
Protein Purification: Media (human and rat) were filtered through a Whatman 3 filter, and then loaded onto a 25 mL Poros HS II (26 mm×47 mm) cation exchange column equilibrated in 25 mM sodium acetate at pH 5.5 (equilibration buffer). The column was washed until the absorbance reached the baseline value, and then the protein was eluted with a linear gradient from 0-2 M sodium chloride in the equilibration buffer. Column fractions were analyzed by SDS-PAGE, N-terminal sequencing, and mass spectrometry. Fractions containing the proform of cathepsin K were pooled and frozen at −80° C. The proform was concentrated in an Amicon Centriprep 10 and fractionated with a Superdex 75 column (26 mm×600 mm, Pharmacia) equilibrated in 400 mM sodium chloride, 25 mM sodium acetate at pH 5.5.
Cathepsin K Activation: The proform of cathepsin K was converted to mature cathepsin K by brief exposure to pH 4 in the presence of 5 mM L-cysteine. Typically, 5 mM L-cysteine was added to 10 mL of approximately 1 mg/mL procathepsin K. One mL of this solution was diluted ten-fold into 450 mM sodium acetate at pH 4.0 containing 5 mM L-cysteine. This solution was reacted at 23° C. for 2 min before neutralization with 2 mL 1.8 M sodium acetate at pH 6.0. The neutralized sample was added to the remaining 9 mL of procathepsin K. The mixture was incubated at 4° C. for 2-3 days. The activated cathepsin K was chromatographed on a Poros HS II column as described above.
Potential inhibitors were evaluated using the progress curve method. Assays were carried out in the presence of variable concentrations of test compound. Reactions were initiated by addition of buffered solutions of inhibitor and substrate to enzyme. Data analysis was conducted according to one of two procedures depending on the appearance of the progress curves in the presence of inhibitors. […] Ki values were calculated from IC50 values using equation 2 assuming a competitive model. [formula]
In the case of `CCCC[C@H](NC(=O)O[C@H](Cn1cc(-c2ccc(C(F)(F)F)cc2)cn1)C(C)(C)C)C(=O)C(=O)Nc1ccn[nH]1` [Example 14, (1S)-2,2-dimethyl-1-({4-[4-(trifluoromethyl)phenyl]-1H-pyrazol-1-yl}methyl)propyl(1S)-1-[oxo(1H-pyrazol-5-ylamino)acetyl]pentylcarbamate], the inhibitory constant (Ki) was 0.01 to 1 nM.

On to `CCCC[C@H](NC(=O)O[C@H](Cc1nnc(-c2ccccc2)o1)C(C)(C)C)C(=O)C(=O)N[C@H](C)c1ccccc1` [Example 15, (1R)-2,2-dimethyl-1-[(5-phenyl-1,3,4-oxadiazol-2-yl)methyl]propyl(1S)-1-(oxo{[(1R)-1-phenylethyl]amino}acetyl)pentylcarbamate], for which the inhibitory constant (Ki) lay within 0.01 to 1 nM.

`CCCC[C@H](NC(=O)O[C@@H](Cc1nnc(-c2ccccc2)o1)C(C)(C)C)C(=O)C(=O)N[C@H](C)c1ccccc1` [Example 16, (1S)-2,2-dimethyl-1-[(5-phenyl-1,3,4-oxadiazol-2-yl)methyl]propyl (1S)-1-(oxo{[(1R)-1-phenylethyl]amino}acetyl)pentylcarbamate]: the Ki was in the range of 100 to 10000 nM.

With `CCCC[C@H](NC(=O)O[C@H](Cc1nnc(-c2ccc(C(F)(F)F)cc2)o1)C(C)(C)C)C(=O)C(=O)N[C@H](C)c1ccccc1` [Example 17], the Ki lay in the range of 0.01 to 1 nM.

Regarding `CCCC[C@H](NC(=O)O[C@@H](Cc1nnc(-c2ccc(C(F)(F)F)cc2)o1)C(C)(C)C)C(=O)C(=O)N[C@H](C)c1ccccc1` [Example 18, (1S)-2,2-dimethyl-1-({5-[4-(trifluoromethyl)phenyl]-1,3,4-oxadiazol-2-yl}methyl)propyl(1S)-1-(oxo{[(1R)-1-phenylethyl]amino}acetyl)pentylcarbamate], the Ki fell in the range of 100 to 10000 nM.

As for `CCCC[C@H](NC(=O)O[C@H](Cc1nnc(-c2ccc(F)cc2)o1)C(C)(C)C)C(=O)C(=O)N[C@H](C)c1ccccc1` [Example 19, (1R)-1-{[5-(4-fluorophenyl)-1,3,4-oxadiazol-2-yl]methyl}-2,2-dimethylpropyl(1S)-1-(oxo{[(1R)-1-phenylethyl]amino}acetyl)pentylcarbamate], the Ki was in the range of 0.01 to 1 nM.

Take `CCCC[C@H](NC(=O)O[C@@H](Cc1nnc(-c2ccc(F)cc2)o1)C(C)(C)C)C(=O)C(=O)N[C@H](C)c1ccccc1` [Example 20, (1S)-1-{[5-(4-fluorophenyl)-1,3,4-oxadiazol-2-yl]methyl}-2,2-dimethylpropyl(1S)-1-(oxo{[(1R)-1-phenylethyl]amino}acetyl)pentylcarbamate]: the inhibition constant (Ki) is 100 to 10000 nM.

As to `CCCC[C@H](NC(=O)O[C@H](Cc1nnc(-c2ccc(F)cc2)o1)C(C)(C)C)C(=O)C(=O)Nc1ccccn1` [Example 21, (1R)-1-{[5-(4-fluorophenyl)-1,3,4-oxadiazol-2-yl]methyl}-2,2-dimethylpropyl(1S)-1-[oxo(2-pyridinylamino)acetyl]pentylcarbamate], the Ki is 100 to 10000 nM.

As for `CCCC[C@H](NC(=O)O[C@H](Cc1nnc(-c2ccc(F)cc2)o1)C(C)(C)C)C(=O)C(=O)Nc1ccn[nH]1` [Example 23, (1R)-1-{[5-(4-fluorophenyl)-1,3,4-oxadiazol-2-yl]methyl}-2,2-dimethylpropyl(1S)-1-[oxo(1H-pyrazol-5-ylamino)acetyl]pentylcarbamate], the Ki was 0.01 to 1 nM.

For the compound `CCCC[C@H](NC(=O)O[C@H](Cc1nnc(-c2ccc(F)cc2)o1)C(C)(C)C)C(=O)C(=O)NCc1ccncc1` [Example 24, (1R)-1-{[5-(4-fluorophenyl)-1,3,4-oxadiazol-2-yl]methyl}-2,2-dimethylpropyl(1S)-1-{oxo[(4-pyridinylmethyl)amino]acetyl}pentylcarbamate], the Ki was in the range of 1 to 100 nM.

As to `CCCC[C@H](NC(=O)O[C@H](Cc1nnc(-c2ccc(F)cc2)o1)C(C)(C)C)C(=O)C(=O)N[C@H]1CCCNC1=O` [Example 25], the Ki was in the range of 0.01 to 1 nM.

As for `CCCC[C@H](NC(=O)O[C@H](CCc1nnc(-c2ccc(C(F)(F)F)cc2)o1)C(C)(C)C)C(=O)C(=O)Nc1ccn[nH]1` [Example 26, (1R)-2,2-dimethyl-1-(2-{5-[4-(trifluoromethyl)phenyl]-1,3,4-oxadiazol-2-yl}ethyl)propyl(1S)-1-[oxo(1H-pyrazol-5-ylamino)acetyl]pentylcarbamate], the Ki lay in the range of 0.01 to 1 nM.

For the compound `CCCC[C@H](NC(=O)O[C@H](Cn1cnc2ccccc21)C(C)(C)C)C(=O)C(=O)Nc1ccn[nH]1` [Example 27, (1S)-1-(1H-benzimidazol-1-ylmethyl)-2,2-dimethylpropyl(1S)-1-[oxo(1H-pyrazol-5-ylamino)acetyl]pentylcarbamate], the Ki lay in the range of 0.01 to 1 nM.

Regarding `CCCC[C@H](NC(=O)O[C@H](Cc1nnc(-c2ccc(C(F)(F)F)cc2)o1)C(C)(C)C)C(=O)C(=O)NN1CCOC1=O` [Example 28, (1R)-2,2-dimethyl-1-({5-[4-(trifluoromethyl)phenyl]-1,3,4-oxadiazol-2-yl}methyl)propyl(1S)-1-{oxo[(2-oxo-1,3-oxazolidin-3-yl)amino]acetyl}pentyl carbamate], the Ki lay within 0.01 to 1 nM.

`CCCC[C@H](NC(=O)O[C@H](Cn1ccc(C(F)(F)F)n1)C(C)(C)C)C(=O)C(=O)Nc1ccn[nH]1` [Example 29, (1S)-2,2-dimethyl-1-{[3-(trifluoromethyl)-1H-pyrazol-1-yl]methyl}propyl(1S)-1-[oxo(1H-pyrazol-5-ylamino)acetyl]pentylcarbamate]: the Ki is 0.01 to 1 nM.

Consider `CCCC[C@H](NC(=O)O[C@H](Cn1nccc1-c1ccc(C(F)(F)F)cc1)C(C)(C)C)C(=O)C(=O)Nc1ccn[nH]1` [Example 30, (1S)-2,2-dimethyl-1-({5-[4-(trifluoromethyl)phenyl]-1H-pyrazol-1-yl}methyl)propyl(1S)-1-[oxo(1H-pyrazol-5-ylamino)acetyl]pentylcarbamate], for which the Ki was in the range of 0.01 to 1 nM.

As to `CCCC[C@H](NC(=O)O[C@H](c1nc2ccccc2s1)C(C)(C)C)C(=O)C(=O)Nc1ccn[nH]1` [Example 31, (1S)-1-(1,3-benzothiazol-2-yl)-2,2-dimethylpropyl(1S)-1-[oxo(1H-pyrazol-5-ylamino)acetyl]pentylcarbamate], the Ki fell in the range of 0.01 to 1 nM.

Turning to `CCCC[C@H](NC(=O)O[C@@H](c1nc2ccccc2s1)C(C)(C)C)C(=O)C(=O)Nc1ccn[nH]1` [Example 32, (1R)-1-(1,3-benzothiazol-2-yl)-2,2-dimethylpropyl(1S)-1-[oxo(1H-pyrazol-5-ylamino)acetyl]pentylcarbamate], the Ki fell in the range of 100 to 10000 nM.

On to `CCCC[C@H](NC(=O)O[C@H](Cn1ccc(-c2cccnc2)n1)C(C)(C)C)C(=O)C(=O)Nc1nccs1` [Example 33, (1S)-2,2-dimethyl-1-{[3-(3-pyridinyl)-1H-pyrazol-1-yl]methyl}propyl(1S)-1-[oxo(1,3-thiazol-2-ylamino)acetyl]pentylcarbamate], for which the inhibition constant (Ki) fell in the range of 0.01 to 1 nM.

Take `CCCC[C@H](NC(=O)O[C@H](Cn1cnc(Cc2ccccc2)c1)C(C)(C)C)C(=O)C(=O)Nc1ccn[nH]1` [Example 34, (1S)-1-[(4-benzyl-1H-imidazol-1-yl)methyl]-2,2-dimethylpropyl(1S)-1-[oxo(1H-pyrazol-5-ylamino)acetyl]pentylcarbamate]: the inhibition constant (Ki) lay in the range of 0.01 to 1 nM.

The record behind these values is patent US20050107616A1, “Alpha-ketoamide derivatives as cathepsin k inhibitors” (priority 2001, published 2005).
